# Results published in PMC9481151, “Discovery of new symmetrical and asymmetrical nitrile-containing 1,4-dihydropyridine derivatives as dual kinases and P-glycoprotein inhibitors: synthesis, in vitro assays, and in silico studies” (Journal of Enzyme Inhibition and Medicinal Chemistry, 2022).
# Several values for one entry are separate records, joined by “and”; a condition that tells them apart may be missing. Equal entries are not always repeated.
# How the values were obtained:
# NCI-H460 = test: NCI single dose (10 µM) SRB screen; assay type: cell-based, human; conditions: non-small cell lung cancer, 48 h
# SW-620 = test: NCI single dose (10 µM) SRB screen; assay type: cell-based, human; conditions: colon cancer, 48 h
# HOP-62 = test: NCI single dose (10 µM) SRB screen; assay type: cell-based, human; conditions: non-small cell lung cancer, 48 h
# Pseudomonas aeruginosa = test: Agar well diffusion method
# OVCAR-3 = test: NCI single dose (10 µM) SRB screen; assay type: cell-based, human; conditions: ovarian cancer, 48 h
# HL-60(TB) = test: NCI single dose (10 µM) SRB screen; assay type: cell-based, human; conditions: leukaemia, 48 h
# SK-OV-3 = test: NCI single dose (10 µM) SRB screen; assay type: cell-based, human; conditions: ovarian cancer, 48 h
# Bacillus subtilis = test: Agar well diffusion method
# PC-3 = test: NCI single dose (10 µM) SRB screen; assay type: cell-based, human; conditions: prostate cancer, 48 h
# NCI-H322M = test: NCI single dose (10 µM) SRB screen; assay type: cell-based; conditions: non-small cell lung cancer, 48 h
# SNB-19 = test: NCI single dose (10 µM) SRB screen; assay type: cell-based, human; conditions: CNS cancer, 48 h
# M14 = test: NCI single dose (10 µM) SRB screen; assay type: cell-based, human; conditions: melanoma, 48 h
# NCI/ADR-RES = test: NCI single dose (10 µM) SRB screen; assay type: cell-based, human; conditions: ovarian cancer, 48 h
# HCT-15 = test: NCI single dose (10 µM) SRB screen; assay type: cell-based, human; conditions: colon cancer, 48 h
# SK-MEL-28 = test: NCI single dose (10 µM) SRB screen; assay type: cell-based, human; conditions: melanoma, 48 h
# UO-31 = test: NCI single dose (10 µM) SRB screen; assay type: cell-based, human; conditions: renal cancer, 48 h
# NCI 60 cancer cell lines = test: NCI single dose (10 µM) SRB screen, mean over panel; assay type: cell-based, human; conditions: mean over 60 cell lines, 48 h
# MOLT-4 = test: NCI single dose (10 µM) SRB screen; assay type: cell-based, human; conditions: leukaemia, 48 h
# HCC-2998 = test: NCI single dose (10 µM) SRB screen; assay type: cell-based, human; conditions: colon cancer, 48 h
# A498 = test: NCI single dose (10 µM) SRB screen; assay type: cell-based, human; conditions: renal cancer, 48 h
# HCT-116 = test: NCI single dose (10 µM) SRB screen; assay type: cell-based, human; conditions: colon cancer, 48 h
# DU-145 = test: NCI single dose (10 µM) SRB screen; assay type: cell-based, human; conditions: prostate cancer, 48 h
# MALME-3M = test: NCI single dose (10 µM) SRB screen; assay type: cell-based, human; conditions: melanoma, 48 h
# NCI-H522 = test: NCI single dose (10 µM) SRB screen; assay type: cell-based, human; conditions: non-small cell lung cancer, 48 h
# UACC-62 = test: NCI single dose (10 µM) SRB screen; assay type: cell-based, human; conditions: melanoma, 48 h
# OVCAR-8 = test: NCI single dose (10 µM) SRB screen; assay type: cell-based, human; conditions: ovarian cancer, 48 h
# OVCAR-4 = test: NCI single dose (10 µM) SRB screen; assay type: cell-based, human; conditions: ovarian cancer, 48 h
# NCI-H23 = test: NCI single dose (10 µM) SRB screen; assay type: cell-based, human; conditions: non-small cell lung cancer, 48 h
# EKVX = test: NCI single dose (10 µM) SRB screen; assay type: cell-based, human; conditions: non-small cell lung cancer, 48 h
# UACC-257 = test: NCI single dose (10 µM) SRB screen; assay type: cell-based, human; conditions: melanoma, 48 h
# SR = test: NCI single dose (10 µM) SRB screen; assay type: cell-based, human; conditions: leukaemia, 48 h
# A549/ATCC = test: NCI single dose (10 µM) SRB screen; assay type: cell-based, human; conditions: non-small cell lung cancer, 48 h
# BT-549 = test: NCI single dose (10 µM) SRB screen; assay type: cell-based, human; conditions: breast cancer, 48 h
# MDA-MB-435 = test: NCI single dose (10 µM) SRB screen; assay type: cell-based, human; conditions: melanoma, 48 h
# CCRF-CEM = test: NCI single dose (10 µM) SRB screen; assay type: cell-based, human; conditions: leukaemia, 48 h
# U251 = test: NCI single dose (10 µM) SRB screen; assay type: cell-based, human; conditions: CNS cancer, 48 h
# MDA-MB-231 = test: NCI single dose (10 µM) SRB screen; assay type: cell-based, human; conditions: breast cancer, 48 h
# MCF7 = test: NCI single dose (10 µM) SRB screen; assay type: cell-based, human; conditions: breast cancer, 48 h
# MDA-MB-468 = test: NCI single dose (10 µM) SRB screen; assay type: cell-based, human; conditions: breast cancer, 48 h
# SN12C = test: NCI single dose (10 µM) SRB screen; assay type: cell-based, human; conditions: renal cancer, 48 h
# RXF 393 = test: NCI single dose (10 µM) SRB screen; assay type: cell-based, human; conditions: renal cancer, 48 h
# Staphylococcus aureus = test: Agar well diffusion method
# SNB-75 = test: NCI single dose (10 µM) SRB screen; assay type: cell-based, human; conditions: CNS cancer, 48 h
# COLO 205 = test: NCI single dose (10 µM) SRB screen; assay type: cell-based, human; conditions: colon cancer, 48 h
# T-47D = test: NCI single dose (10 µM) SRB screen; assay type: cell-based, human; conditions: breast cancer, 48 h
# K-562 = test: NCI single dose (10 µM) SRB screen; assay type: cell-based, human; conditions: leukaemia, 48 h
# RPMI-8226 = test: NCI single dose (10 µM) SRB screen; assay type: cell-based, human; conditions: leukaemia, 48 h
# HOP-92 = test: NCI single dose (10 µM) SRB screen; assay type: cell-based, human; conditions: non-small cell lung cancer, 48 h
# LOX IMVI = test: NCI single dose (10 µM) SRB screen; assay type: cell-based, human; conditions: melanoma, 48 h
# SF-295 = test: NCI single dose (10 µM) SRB screen; assay type: cell-based, human; conditions: CNS cancer, 48 h
# SF-268 = test: NCI single dose (10 µM) SRB screen; assay type: cell-based, human; conditions: CNS cancer, 48 h
# SF-539 = test: NCI single dose (10 µM) SRB screen; assay type: cell-based, human; conditions: CNS cancer, 48 h
# 786-0 = test: NCI single dose (10 µM) SRB screen; assay type: cell-based, human; conditions: renal cancer, 48 h
compound,measurement,setting,value
"CCOC(=O)C1=C(C)NC(C)=C(C(=O)OC(C)(C)C)C1c1cccc(C#N)c1 (racemic) [Compound 2j, (±)-3-Tert-butyl 5-ethyl 4-(3-cyanophenyl)-2,6-dimethyl-1,4-dihydropyridine-3,5-dicarboxylate]",GI% NCI-H460,NCI-H460,– (Only GI% ≥ 10 are shown)
same,GI% SW-620,SW-620,– (Only GI% ≥ 10 are shown)
same,GI% HOP-62,HOP-62,– (Only GI% ≥ 10 are shown)
same,zone of inhibition at 1000 µg/mL,"Pseudomonas aeruginosa; Pseudomonas aeruginosa, 24 h, read-out: Diameter of inhibition zone, P. aeruginosa",20 mm
same,"% activity index, P. aeruginosa",Pseudomonas aeruginosa; relative to ciprofloxacin,86% and 86.9%
same,GI% OVCAR-3,OVCAR-3,– (Only GI% ≥ 10 are shown)
same,GI% HL-60(TB),HL-60(TB),19%
same,GI% SK-OV-3,SK-OV-3,– (Only GI% ≥ 10 are shown)
same,zone of inhibition at 1000 µg/mL,"Bacillus subtilis; Bacillus subtilis, 24 h, read-out: Diameter of inhibition zone, B. subtilis",15 mm
same,"% activity index, B. subtilis",Bacillus subtilis; relative to ciprofloxacin,65.2%
same,GI% PC-3,PC-3,18%
same,GI% NCI-H322M,NCI-H322M,– (Only GI% ≥ 10 are shown)
same,GI% SNB-19,SNB-19,– (Only GI% ≥ 10 are shown)
same,GI% M14,M14,– (Only GI% ≥ 10 are shown)
same,GI% NCI/ADR-RES,NCI/ADR-RES,10%
same,GI% HCT-15,HCT-15,– (Only GI% ≥ 10 are shown)
same,GI% SK-MEL-28,SK-MEL-28,– (Only GI% ≥ 10 are shown)
same,GI% UO-31,UO-31,– (Only GI% ≥ 10 are shown)
same,Mean GI%,NCI 60 cancer cell lines,4%
same,GI% MOLT-4,MOLT-4,17%
same,GI% HCC-2998,HCC-2998,– (Only GI% ≥ 10 are shown)
same,GI% A498,A498,– (Only GI% ≥ 10 are shown)
same,GI% HCT-116,HCT-116,13%
same,GI% DU-145,DU-145,– (Only GI% ≥ 10 are shown)
same,GI% MALME-3M,MALME-3M,– (Only GI% ≥ 10 are shown)
same,GI% NCI-H522,NCI-H522,13%
same,GI% UACC-62,UACC-62,10%
same,GI% OVCAR-8,OVCAR-8,– (Only GI% ≥ 10 are shown)
same,GI% OVCAR-4,OVCAR-4,– (Only GI% ≥ 10 are shown)
same,GI% NCI-H23,NCI-H23,– (Only GI% ≥ 10 are shown)
same,GI% EKVX,EKVX,10%
same,GI% UACC-257,UACC-257,– (Only GI% ≥ 10 are shown)
same,GI% SR,SR,22%
same,GI% A549/ATCC,A549/ATCC,11%
same,GI% BT-549,BT-549,– (Only GI% ≥ 10 are shown)
same,GI% MDA-MB-435,MDA-MB-435,– (Only GI% ≥ 10 are shown)
same,GI% CCRF-CEM,CCRF-CEM,– (Only GI% ≥ 10 are shown)
same,GI% U251,U251,– (Only GI% ≥ 10 are shown)
same,GI% MDA-MB-231,MDA-MB-231,– (Only GI% ≥ 10 are shown)
same,GI% MCF7,MCF7,– (Only GI% ≥ 10 are shown)
same,GI% MDA-MB-468,MDA-MB-468,10%
same,GI% SN12C,SN12C,– (Only GI% ≥ 10 are shown)
same,GI% RXF 393,RXF 393,– (Only GI% ≥ 10 are shown)
same,zone of inhibition at 1000 µg/mL,"Staphylococcus aureus; Staphylococcus aureus, 24 h, read-out: Diameter of inhibition zone, S. aureus",18 mm
same,"% activity index, S. aureus",Staphylococcus aureus; relative to ciprofloxacin,75%
same,GI% SNB-75,SNB-75,22%
same,GI% COLO 205,COLO 205,– (Only GI% ≥ 10 are shown)
same,GI% T-47D,T-47D,– (Only GI% ≥ 10 are shown)
same,GI% K-562,K-562,17%
same,GI% RPMI-8226,RPMI-8226,12%
same,GI% HOP-92,HOP-92,– (Only GI% ≥ 10 are shown)
same,GI% LOX IMVI,LOX IMVI,– (Only GI% ≥ 10 are shown)
same,GI% SF-295,SF-295,– (Only GI% ≥ 10 are shown)
same,GI% SF-268,SF-268,– (Only GI% ≥ 10 are shown)
same,GI% SF-539,SF-539,– (Only GI% ≥ 10 are shown)
same,GI% 786-0,786-0,13%
